According to patent publication US11999727B2 (Tango Therapeutics, Inc., priority 2020, dated 2024):

Columns and labels:
PRMT5 [1] = biological target: T1, PRMT5 (Homo sapiens, UniProt O14744); test: PRMT5 biochemical IC50 assay with SAM as cofactor; settings: PRMT5, SAM as cofactor; read-out: SAM IC50
T1 construct: purchased Viva (custom protein)

PRMT5 [2] = biological target: T1, PRMT5; test: PRMT5 biochemical IC50 assay with MTA as cofactor; settings: PRMT5, MTA as cofactor; read-out: MTA IC50
[3] = system: HAP1 MTAP-deleted cell line; test: SDMA in-cell western assay, HAP1 MTAP-deleted; format: cell-based; settings: for IC50: Homo sapiens, HAP1, SDMA in-cell western, HAP1 MTAP-deleted, read-out: HAP1 MTAP deleted IC50; for MTAP intact/deleted ratio: IC50 ratio HAP1 MTAP-intact / HAP1 MTAP-deleted, SDMA in-cell western
Procedure, shortened: (§1)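 Compounds were tested in HAP1 cells differing only in MTAP status (endogenous expression versus null). Cellular SDMA levels were then measured by in-cell western, giving an IC50 in each background.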

[4] = system: HAP1 MTAP-deleted cell line; test: Viability assay, MTAP-deleted cell line; format: cell-based; settings: Homo sapiens, HAP1, viability assay, HAP1 MTAP-deleted; read-out: HAP1 MTAP deleted viability
Source text: Table 1 additionally indicates IC50 values in a viability assay for the MTAP-deleted cell line (column 10), indicating the effect of treatment with compound on cell survival.

PRMT5 [5] = biological target: T1, PRMT5; test: PRMT5 biochemical IC50 assay with no cofactor; settings: PRMT5, no cofactor; read-out: No Cofactor/rel IC50
Source text: Table 1 indicates IC50 values (μM) against PRMT5 for exemplary compounds in the presence of SAM as cofactor, with no cofactor, and with MTA as cofactor, respectively (columns 4-6). […] Ki values can be calculated from the IC50 values as described in the Examples section. As detailed in the Examples section, for the assay performed in the presence of SAM, IC50=Ki×1.5 (Ki=IC50/1.5).

[6] = system: HAP1 MTAP-intact cell line; test: SDMA in-cell western assay, HAP1 MTAP-intact; format: cell-based; settings: Homo sapiens, HAP1, SDMA in-cell western, HAP1 MTAP-intact; read-out: MTAP HAP1 intact IC50
Procedure, shortened: as §1

T1 sequence (O14744 whole entry): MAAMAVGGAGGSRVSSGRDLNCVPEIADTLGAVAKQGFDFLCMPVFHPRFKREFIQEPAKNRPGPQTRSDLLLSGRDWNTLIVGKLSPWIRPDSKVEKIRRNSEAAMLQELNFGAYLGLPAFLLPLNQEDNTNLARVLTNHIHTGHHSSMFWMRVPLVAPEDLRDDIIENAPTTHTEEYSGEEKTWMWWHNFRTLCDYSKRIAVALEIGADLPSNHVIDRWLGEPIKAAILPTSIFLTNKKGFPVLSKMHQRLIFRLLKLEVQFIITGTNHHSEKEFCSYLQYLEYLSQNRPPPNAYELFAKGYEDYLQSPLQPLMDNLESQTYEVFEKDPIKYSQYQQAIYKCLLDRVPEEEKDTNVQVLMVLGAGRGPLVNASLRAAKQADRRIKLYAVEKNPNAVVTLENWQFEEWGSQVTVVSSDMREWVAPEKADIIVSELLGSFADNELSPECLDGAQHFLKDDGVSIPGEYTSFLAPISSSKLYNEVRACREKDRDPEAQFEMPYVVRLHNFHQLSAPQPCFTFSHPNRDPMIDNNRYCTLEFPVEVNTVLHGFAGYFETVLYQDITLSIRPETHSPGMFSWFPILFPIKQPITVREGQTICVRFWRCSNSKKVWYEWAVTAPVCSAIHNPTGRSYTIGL
T1 sequence (Q9BQA1 whole entry partner): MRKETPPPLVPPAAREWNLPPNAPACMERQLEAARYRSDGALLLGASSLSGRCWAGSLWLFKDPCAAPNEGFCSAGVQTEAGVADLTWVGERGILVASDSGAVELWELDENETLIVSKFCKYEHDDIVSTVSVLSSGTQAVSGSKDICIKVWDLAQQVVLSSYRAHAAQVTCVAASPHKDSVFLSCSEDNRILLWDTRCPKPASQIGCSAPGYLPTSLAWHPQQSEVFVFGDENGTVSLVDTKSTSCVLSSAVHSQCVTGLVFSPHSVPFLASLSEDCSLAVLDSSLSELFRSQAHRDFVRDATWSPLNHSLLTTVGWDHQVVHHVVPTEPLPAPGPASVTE

SMILES	IC50 (PRMT5 [1]) [nM]	IC50 (PRMT5 [2]) [nM]	IC50 [3] [nM]	MTAP intact/deleted ratio [3]	IC50 [4] [nM]	IC50 (PRMT5 [5]) [nM]	IC50 [6] [nM]
C[C@H]1CC[C@H](c2ccc3[nH]c(=O)ccc3c2)N(C(=O)C(=O)Nc2cncc(C(N)=O)c2)C1 (single isomer, unassigned) [Compound 809]	50 to 500	< 50	100 to 1000	A (an IC50 ratio greater than or equal to 10 fold)	1000 to 10000	< 50	> 1000
COc1ncc(NC(=O)C(=O)N2C[C@H](C)CC[C@H]2c2ccc3[nH]c(=O)ccc3c2)cc1C(N)=O (single isomer, unassigned) [Compound 810]	> 500	> 500	> 1000	B (an IC50 ratio greater than or equal to 3 fold but lower than 10 fold)	> 10000	> 500	> 1000
COc1ncc(NC(=O)C(=O)N2C[C@@H](C)CC[C@@H]2c2ccc(-c3nccs3)cc2)cc1C(N)=O (single isomer, unassigned) [Compound 811]	50 to 500	< 50	100 to 1000	A (an IC50 ratio greater than or equal to 10 fold)	1000 to 10000	50 to 500	> 1000
CCc1cc(NC(=O)C(=O)N2C[C@H](C)CC[C@H]2c2ccc(-c3nccs3)cc2)cnc1N (single isomer, unassigned) [Compound 813]	50 to 500	< 50	100 to 1000	A (an IC50 ratio greater than or equal to 10 fold)	< 1000	50 to 500	> 1000
Cc1cc(NC(=O)C(=O)N2C[C@H](C)CC[C@H]2c2ccc(-c3nccs3)cc2)cnc1N (single isomer, unassigned) [Compound 816]	> 500	> 500	> 1000	C (an IC50 ratio of less than 3 fold)	> 10000	> 500	> 1000
C[C@@H]1CC[C@@H](c2ccc(-c3cncs3)cc2)N(C(=O)C(=O)Nc2cncc(C(N)=O)c2)C1 (single isomer, unassigned) [Compound 817, 5-(2-(5-methyl-2-(4-(thiazol-5-yl)phenyl)piperidin-1-yl)-2-oxoacetamido)nicotinamide]	> 500	> 500	> 1000	C (an IC50 ratio of less than 3 fold)	> 10000	> 500	> 1000
CCc1cc(NC(=O)C(=O)N2C[C@H](C)CC[C@H]2c2ccc3[nH]c(=O)ccc3c2)cnc1N (single isomer, unassigned) [Compound 819]	> 500	> 500	100 to 1000	A (an IC50 ratio greater than or equal to 10 fold)	1000 to 10000	> 500	> 1000
Cc1cc(NC(=O)C(=O)N2C[C@@H](C)CC[C@@H]2c2ccc(-c3nccs3)cc2)cnc1N (single isomer, unassigned) [Compound 820]	50 to 500	< 50	< 100	B (an IC50 ratio greater than or equal to 3 fold but lower than 10 fold)	< 1000	50 to 500	100 to 1000
C[C@H]1CC[C@H](c2ccc(-c3cncs3)cc2)N(C(=O)C(=O)Nc2cncc(C(N)=O)c2)C1 (single isomer, unassigned) [Compound 821, 5-(2-(5-methyl-2-(4-(thiazol-5-yl)phenyl)piperidin-1-yl)-2-oxoacetamido)nicotinamide]	50 to 500	< 50	< 100	A (an IC50 ratio greater than or equal to 10 fold)	1000 to 10000	50 to 500	> 1000
CCc1cc(NC(=O)C(=O)N2C[C@@H](C)CC[C@@H]2c2ccc(-c3nccs3)cc2)cnc1N (single isomer, unassigned) [Compound 822]	> 500	> 500	> 1000	C (an IC50 ratio of less than 3 fold)	> 10000	> 500	> 1000
Cc1cc(NC(=O)C(=O)N2C[C@H](C)CC[C@H]2c2ccc(C(N)=O)s2)cnc1N (single isomer, unassigned) [Compound 823]	> 500	> 500	> 1000	C (an IC50 ratio of less than 3 fold)	> 10000	> 500	> 1000
Cc1cc(NC(=O)C(=O)N2C[C@@H](C)CC[C@@H]2c2cc3[nH]ncc3s2)cnc1N (single isomer, unassigned) [Compound 824]	50 to 500	< 50	< 100	A (an IC50 ratio greater than or equal to 10 fold)	< 1000	< 50	100 to 1000
CCc1cc(NC(=O)C(=O)N2C[C@@H](C)CC[C@@H]2c2ccc3[nH]c(=O)ccc3c2)cnc1N (single isomer, unassigned) [Compound 825]	50 to 500	< 50	< 100	A (an IC50 ratio greater than or equal to 10 fold)	< 1000	< 50	100 to 1000
Cc1cc(NC(=O)C(=O)N2C[C@H](C)CC[C@H]2c2cc3[nH]ncc3s2)cnc1N (single isomer, unassigned) [Compound 826]	> 500	50 to 500	> 1000	B (an IC50 ratio greater than or equal to 3 fold but lower than 10 fold)	> 10000	> 500	> 1000
CCc1cc(NC(=O)C(=O)N2C[C@@H](C)CC[C@@H]2c2ccc(-c3cncs3)cc2)cnc1N (single isomer, unassigned) [Compound 827, N-(6-amino-5-ethylpyridin-3-yl)-2-(5-methyl-2-(4-(thiazol-5-yl)phenyl)piperidin-1-yl)-2-oxoacetamide]	> 500	50 to 500	100 to 1000	A (an IC50 ratio greater than or equal to 10 fold)	> 10000	> 500	> 1000
CNC(=O)c1ccc([C@@H]2CC[C@@H](C)CN2C(=O)C(=O)Nc2cncc(C(N)=O)c2)s1 (single isomer, unassigned) [Compound 829]	50 to 500	< 50	< 100	A (an IC50 ratio greater than or equal to 10 fold)	1000 to 10000	< 50	> 1000
COc1ncc(NC(=O)C(=O)N2C[C@H](C)CC[C@H]2c2ccc(-c3cncs3)cc2)cc1C(N)=O (single isomer, unassigned) [Compound 830, 2-methoxy-5-(2-(5-methyl-2-(4-(thiazol-5-yl)phenyl)piperidin-1-yl)-2-oxoacetamido)nicotinamide]	50 to 500	< 50	< 100	A (an IC50 ratio greater than or equal to 10 fold)	< 1000	50 to 500	> 1000
CNC(=O)c1ccc([C@H]2CC[C@H](C)CN2C(=O)C(=O)Nc2cnc(OC)c(C(N)=O)c2)s1 (single isomer, unassigned) [Compound 833]	50 to 500	< 50	< 100	A (an IC50 ratio greater than or equal to 10 fold)	< 1000	50 to 500	100 to 1000
C[C@@H]1CC[C@@H](c2cc(F)c(F)c(Cl)c2)N(C(=O)C(=O)Nc2cncc(C(N)=O)c2)C1 (single isomer, unassigned) [Compound 834]	50 to 500	< 50	100 to 1000	A (an IC50 ratio greater than or equal to 10 fold)	1000 to 10000	50 to 500	> 1000
CCc1cc(NC(=O)C(=O)N2C[C@H](C)CC[C@H]2c2ccc(C(=O)NC)s2)cnc1N (single isomer, unassigned) [Compound 835]	> 500	> 500	> 1000	C (an IC50 ratio of less than 3 fold)	> 10000	> 500	> 1000
COc1ncc(NC(=O)C(=O)N2C[C@@H](C)CC[C@@H]2c2ccc(C(N)=O)s2)cc1C(N)=O (single isomer, unassigned) [Compound 837]	50 to 500	< 50	< 100	A (an IC50 ratio greater than or equal to 10 fold)	< 1000	< 50	> 1000
